Data set [1] in a line: chemical stability of 100 µM solution in PBS. It counts as physicochemical. As for the experimental part:
The chemical stability of 100 µM UAMC-3203 in PBS (pH 7.4) was investigated for 30 days as described previously. Briefly, four batches with triplicates were stored at 4, 25, or 37 °C with light protection and at 25 °C without light protection. Separate solutions were used for pH-dependent stability studies. Samples were collected, and pH was measured at various times. The samples were stored at −20 °C until HPLC analysis.
The quantitation of UAMC-3203 was performed with […] reverse-phase HPLC system consisting of a degasser (G1379B), multi-sampler (G1367D), a binary pump (G1312B), a thermostat (G1316B), and a diode array detector (DAD) detector (G1315C). A Zorbax Eclipse XDB-C18 (4.6 × 50 mm, 4 μm; Agilent Technologies, Santa Clara, CA, USA) column was used for the analyses. The mobile phase was composed of 0.1% […] (Sigma-Aldrich, St. Louis, MO, USA) in Milli-Q-H2O and 0.1% […] in acetonitrile (LC-MS Chromasolv, Honeywell, Riedel-de Haen, Seelze, Germany) (65:35% v/v). Isocratic analysis was performed at a flow rate of 1 mL/min. The injection volume was 5 μL, and the detection wavelength was 240 nm.

Data set [2] relates to human corneal epithelial (HCE) cells. As to the kind of experiment: in vitro scratch assay. It counts as cell-based. The settings on record: for HCE cell migration (%): 72 h, negative control 55.6 ± 17.6%. As for the experimental part: In vitro scratch assay was performed in confluent HCE monolayer as previously reported. HCE cells were seeded on 24-well plates at 1 × 10^5 cells/well incubated for 24 h. The monolayer was scratched with sterile 10 µL pipette tips perpendicular to the lines to create a consistent cell-free area. The cells were washed three times with pre-warmed PBS to remove detached cells. The cells were then exposed to UAMC-3203 at different concentrations (10 nM, 1 µM, 10 µM, 50 µM) in serum-free DMEM (Dulbecco’s Modified Eagle Medium): F12 media that was supplemented with 1% penicillin-streptomycin solution […] penicillin, 0.1 mg/mL streptomycin (Corning, Ref 30-002-CI, Mediatech Inc., Discovery Boulevard, Manassas, VA, USA). Serum-free medium was used as a negative control, and 1.5% fetal bovine serum (FBS 10270, Gibco by Life Technologies, Carlsbad, CA, USA) supplemented medium was used as a positive control. The well plates were then transferred to Cell-IQ (CM Technologies Limited, Tampere, Finland) and maintained in standard tissue culture conditions (37 °C, 5% CO2-atmosphere).
Images were taken immediately after scratch (less than 1 h) and at 6, 12, 24, 30, 42, 48, and 72 h and analyzed by Cell-IQ analyzer. Three independent experiments were performed, using two to three wells for each stimulating condition. Cell migration (A%) was calculated as follows:(1) A%=A0−At/A0×100 where A0 and At represent the wound areas at 0 h and each timepoint, respectively.

Data set [3] concerns HCE cells. As to the kind of experiment: in vitro cytotoxicity, MTT assay. It counts as cell-based, human. The conditions noted are these: 3 h exposure. As for the experimental part:
The cytotoxicity of UAMC-3203 was assessed by MTT assay. The HCE cells were seeded on a 96-well plate at a density of 100,000 cells/well in 200 µL of supplemented growth medium. The next day the cells were washed with PBS (pH 7.2). The cells were then exposed to UAMC-3203 at concentrations 10 nM, 1 µM, 10 µM, and 50 µM for 3 h. For control, cells not exposed to UAMC-3203 cultured in a serum-free medium were used. The cells were then washed twice with PBS and incubated 2 h with 100 µL of 10% of thiazolyl blue tetrazolium bromide (MTT, Sigma-Aldrich, St. Louis, MO, USA) in a serum-free medium. An amount of 100 µL of 20% (w/v) sodium dodecyl sulfate (SDS), N-dimethylformamide (DMF) lysis buffer was added to each well and incubated overnight. The following day, cell viability was evaluated by measuring absorbance at 570 nm with a Victor^2 multilabel plate reader (PerkinElmer, Wallac, St. Paul, MN, USA). The cell viability % was calculated as below:(2) % of cell viability=Abs exposed cells−Abs blank/Abs non−exposed cells−Abs blank×100 where Abs exposed cells = absorbance of cells exposed to UAMC-3203; Abs blank = absorbance of well plates without cells; and Abs non–exposed cells = Absorbance of cells exposed to serum-free medium (i.e., control).

Data set [4] relates to ferroptosis. Also on record: method as in PMID 30354101. The conditions noted are these: read-out: in vitro potency IC50 (ferroptosis); cited from earlier work.
The conditions of data set [5]: human microsome; cited from earlier work.

Data on 1 compound can be found in article PMC9863691, “A Novel Ferroptosis Inhibitor UAMC-3203, a Potential Treatment for Corneal Epithelial Wound” (Pharmaceutics, 2022).

As a reminder, the IC50 is the concentration that inhibits the measured activity by half.

Consider `O=S(=O)(NCCN1CCNCC1)c1ccc(NC2CCCCC2)c(NCc2ccccc2)c1` [UAMC-3203], for which the “% of initial concentration at day 30” value in data set [1] (100 µM in PBS pH 7.4, various temperatures and light exposure conditions) is reported as “about 90%”. Besides, in data set [1] (starting pH 7.4, all conditions), the “pH of the solution during 30 days” value is reported as 7.5–7.6. The “HCE cell migration (%)” value is given as 84.9 ± 12.5% in data set [2] (10 nM) and 76.6 ± 15.2% in data set [2] (1 µM). The “cell migration compared to negative control” value in data set [2] (10 µM) is reported as “no notable difference at any time point”. Further, the “change of scratch area” value in data set [2] (50 µM) is on record as “did not cause any changes in the scratch area”. The “optimal concentration for corneal epithelial wound healing effect in vitro” value in data set [2] (in vitro) worked out at 10 nM. Further, the “toxicity to HCE cells” value in data set [3] (10 nM) and in data set [3] (1 µM) was “did not cause any toxicity” in each case. Also, the HCE cell viability in data set [3] (10 µM) is 75 ± 6.7%; in data set [3] (50 µM) it was 39.2 ± 5.6%. Moreover, the IC50 in data set [4] is 10 nM. Further, in data set [5], the “t1/2 in human microsome” value is listed as 20 h.
